Measurements taken from ChEMBL document CHEMBL6120949, “Fully Synthetic TF-Based Self-Adjuvanting Vaccine Simultaneously Triggers iNKT Cells and Mincle and Protects Mice against Tumor Development” (2024).
The source made the active and inactive calls. The calls are words filed in the database; no cut-off is given here.

Experiments:
Mus musculus [1] = assay: Immunization of Balb/c mouse assessed as decrease in TF-specific IgM titer compound administered as liposomes subcutaneously on day 0 in presence of TF followed by administration of booster doses on days 14, 21 and 28 measured on days 21, 27 and 38 by ELISA; format: functional, organism-based; settings: route sc, time 38.0 day
4T1-Luc [2] = assay: Cytotoxicity against TF-positive mouse 4T1-Luc cells treated with anti-serum derived from compound-vaccinated mouse for 2 hrs followed by anti-serum washout and addition of rabbit complement serum measured after 1 hr by LDH assay; format: functional, cell-based
Mus musculus [3] = assay: (§1) Antitumor activity in cyclophosphamide-treated Balb/c mouse assessed as survival ratio compound administered as liposomes subcutaneously on day 0 in presence of TF followed by administration of booster doses on days 14, 21 and 28 and implantation of mouse TA3/Ha cells on day 35 measured upto 50 days post-tumor challenge relative to control; format: functional; settings: route sc; time <= 85 day
TA3/Ha [4] = assay: Binding ability of anti-serum derived from compound-vaccinated mouse to TF-positive mouse TA3/Ha cells cultured with FITC-labeled anti-IgG Ab assessed as positive fluorescent peak shift by FACS analysis; format: functional, cell-based
Mus musculus [5] = assay: as §1, with “rejection of tumor” for “survival ratio”, “followed by re-implantation of another mouse TA3/Ha cells measured for another 100 days post-tumor challenge” for “relative to control”; format: functional, organism-based; settings: route sc, time 185.0 day
Mus musculus [6] = assay: Immunization of Balb/c mouse assessed as increase in IgG titer compound administered as liposomes subcutaneously on day 0 in presence of TF followed by administration of booster doses on days 14, 21 and 28 measured on days 21, 27 and 38 by ELISA; format: functional, organism-based; settings: route sc, time 38.0 day
TA3/Ha [7] = assay: Binding ability of anti-serum derived from compound-vaccinated surviving mouse to TF-positive mouse TA3/Ha cells cultured with FITC-labeled anti-IgG Ab assessed as positive fluorescent peak shift by FACS analysis; format: functional, cell-based
TA3/Ha [8] = assay: Cytotoxicity against TF-positive mouse TA3/Ha cells treated with anti-serum derived from compound-vaccinated mouse for 2 hrs followed by anti-serum washout and addition of rabbit complement serum measured after 1 hr by LDH assay; format: functional, cell-based
Mus musculus [9] = assay: as §1, with “protection against tumor development” for “survival ratio”, “challenge” for “challenge relative to control”; format: functional, organism-based; settings: route sc, time <= 85.0 day
Mus musculus [10] = assay: (§2) Antitumor activity in cyclophosphamide-treated Balb/c mouse assessed as average survival time compound administered as liposomes subcutaneously on day 0 in presence of TF followed by administration of booster doses on days 14, 21 and 28 and implantation of mouse TA3/Ha cells on day 35 measured upto 50 days post-tumor challenge; format: functional; settings: route sc; time <= 85 day
Mus musculus [11] = assay: Immunization of Balb/c mouse assessed as increase in kappa light chain titer compound administered as liposomes subcutaneously on day 0 in presence of TF followed by administration of booster doses on days 14, 21 and 28 measured on days 21, 27 and 38 by ELISA; format: functional, organism-based; settings: route sc, time 38.0 day
Mus musculus [12] = assay: Immunization of Balb/c mouse assessed as increase in IFN-gamma level compound administered as liposomes subcutaneously on day 0 in presence of TF followed by administration of booster doses on days 14, 21 and 28 measured on days 21, 27 and 38 by ELISA; format: functional, organism-based; settings: route sc, time 38.0 day
[13] = target: T1, C-type lectin domain family 4 member E (Homo sapiens) (UniProt Q9ULY5); assay: Binding affinity to Fc-fused human Mincle incubated for 1.5 hrs by ELISA
T1 sequence (whole entry): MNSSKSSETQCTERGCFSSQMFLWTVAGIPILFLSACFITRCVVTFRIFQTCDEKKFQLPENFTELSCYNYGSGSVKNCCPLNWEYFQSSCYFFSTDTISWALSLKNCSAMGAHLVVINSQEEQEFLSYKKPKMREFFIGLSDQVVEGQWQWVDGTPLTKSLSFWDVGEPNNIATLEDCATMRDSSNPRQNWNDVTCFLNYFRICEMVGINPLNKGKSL

Mus musculus [14] = assay: Immunization of Balb/c mouse assessed as IgG titer compound administered as liposomes subcutaneously on day 0 in presence of TF followed by administration of booster doses on days 14, 21 and 28 measured on days 21, 27 and 38 by ELISA; format: functional; settings: route sc; time 38 day
MDA-MB-468 [15] = assay: Binding ability of anti-serum derived from compound-vaccinated mouse to TF-negative human MDA-MB-468 cells cultured with FITC-labeled anti-IgG Ab assessed as positive fluorescent peak shift by FACS analysis; format: functional, cell-based
MDA-MB-468 [16] = assay: Cytotoxicity against TF-negative human MDA-MB-468 cells treated with anti-serum derived from compound-vaccinated mouse for 2 hrs followed by anti-serum washout and addition of rabbit complement serum measured after 1 hr by LDH assay; format: functional, cell-based
Mus musculus [17] = assay: Antitumor activity in cyclophosphamide-treated surviving Balb/c mouse assessed as increase in IgG antibody titer compound administered as liposomes subcutaneously on day 0 in presence of TF followed by administration of booster doses on days 14, 21 and 28 and implantation of mouse TA3/Ha cells on day 35 measured upto 50 days post-tumor challenge followed by re-implantation of another mouse TA3/Ha cells measured for another 30 days post-tumor challenge by ELISA; format: functional, organism-based; settings: route sc, time <= 115.0 day
4T1-Luc [18] = assay: Binding ability of anti-serum derived from compound-vaccinated mouse to TF-positive mouse 4T1-Luc cells cultured with FITC-labeled anti-IgG Ab assessed as positive fluorescent peak shift by FACS analysis; format: functional, cell-based
[19] = target: T2, Antigen-presenting glycoprotein CD1d1 (Mus musculus) (UniProt P11609); assay: Binding affinity to His-tagged mouse CD1d incubated for 1.5 hrs by ELISA
T2 sequence (whole entry): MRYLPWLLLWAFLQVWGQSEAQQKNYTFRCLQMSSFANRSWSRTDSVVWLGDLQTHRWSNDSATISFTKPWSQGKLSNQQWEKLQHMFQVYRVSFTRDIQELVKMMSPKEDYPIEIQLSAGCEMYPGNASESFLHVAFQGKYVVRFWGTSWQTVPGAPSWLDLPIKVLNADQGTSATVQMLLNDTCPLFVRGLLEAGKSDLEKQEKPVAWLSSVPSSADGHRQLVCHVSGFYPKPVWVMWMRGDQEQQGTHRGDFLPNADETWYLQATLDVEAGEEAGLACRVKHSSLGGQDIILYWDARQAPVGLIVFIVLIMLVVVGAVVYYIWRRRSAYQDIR

Mus musculus [20] = assay: as §2, with “in” for “in cyclophosphamide-treated”; format: functional; settings: route sc; time <= 85 day
Mus musculus [21] = assay: Immunization of Balb/c mouse assessed as increase in IgG2a titer compound administered as liposomes subcutaneously on day 0 in presence of TF followed by administration of booster doses on days 14, 21 and 28 measured on days 21, 27 and 38 by ELISA; format: functional, organism-based; settings: route sc, time 38.0 day
Mus musculus [22] = assay: Immunization of Balb/c mouse assessed as IFN-gamma level compound administered as liposomes subcutaneously on day 0 in presence of TF followed by administration of booster doses on days 14, 21 and 28 measured on days 21, 27 and 38 by ELISA; format: functional; settings: route sc; time 38 day
Mus musculus [23] = assay: as §1, with “in” for “in cyclophosphamide-treated”; format: functional; settings: route sc; time <= 85 day

Row | Compound | Activity (Mus musculus [1]) | Activity (4T1-Luc [2]) | Survival (Mus musculus [3]) | Activity (TA3/Ha [4]) | Activity (Mus musculus [5]) | Activity (Mus musculus [6]) | Activity (TA3/Ha [7]) | Activity (TA3/Ha [8]) | Activity (Mus musculus [9]) | Time (Mus musculus [10]) | Activity (Mus musculus [11]) | Activity (Mus musculus [12]) | Activity [13] | Activity (Mus musculus [14]) | Activity (MDA-MB-468 [15]) | Activity (MDA-MB-468 [16]) | Activity (Mus musculus [17]) | Activity (4T1-Luc [18]) | Activity [19] | other results
1 | CCCCCCCCCC(CCCCCCCCC)CC(=O)OC[C@H]1O[C@H](O[C@H]2O[C@H](COC(=O)CC(CCCCCCCCC)CCCCCCCCC)[C@@H](OCCOCCNC(=O)CCC(=O)NCc3cn(CCO[C@H]4O[C@H](CO)[C@H](O)[C@H](O[C@@H]5O[C@H](CO)[C@H](O)[C@H](O)[C@H]5O)[C@H]4NC(C)=O)nn3)[C@H](O)[C@H]2O)[C@H](O)[C@@H](O)[C@@H]1O | Active; Result Reveals That Efficient Conversion Of Igm To Igg Had Occurred And That Long-Term Secondary Immune Responses Had Been Triggered | Active; Result Reveals That The Anti-Serum Induced By Compound Effectively Activated The Complement System | 50% | Active | Active | Active | Active | Active; Result Reveals That The Anti-Serum Induced By Compound Effectively Activated The Complement System | Active | 38.8 days | Active; Compound Induced Strong Tf-Specific And T-Cell-Dependent Immune Response | Active | Active | 66937 | inactive | inactive | Active | Active |  | 
2 | CCCCCCCCCCCCCCCCCCCCCCCCCC(=O)N[C@@H](CO[C@H]1O[C@H](CNC(=O)CCCCC(=O)NCc2cn(CCO[C@H]3O[C@H](CO)[C@H](O)[C@H](O[C@@H]4O[C@H](CO)[C@H](O)[C@H](O)[C@H]4O)[C@H]3NC(C)=O)nn2)[C@H](O)[C@H](O)[C@H]1O)[C@H](O)[C@H](O)CCCCCCCCCCCCCC | Active; Result Reveals That Efficient Conversion Of Igm To Igg Had Occurred And That Long-Term Secondary Immune Responses Had Been Triggered | Active; Result Reveals That The Anti-Serum Induced By Compound Effectively Activated The Complement System | 37.5% | Active | Active | Active | Active | Active; Result Reveals That The Anti-Serum Induced By Compound Effectively Activated The Complement System | Active | 34.4 days | Active; Compound Induced Strong Tf-Specific And T-Cell-Dependent Immune Response | Active |  | 54112 | inactive | inactive | Active | Active | Active | 
3 | CCCCCCCCCCCCCCCCCCCCCCCCCC(=O)N[C@@H](CO[C@H]1O[C@H](CNC(=O)CCCCC(=O)NCCCC[C@H](NC(=O)CCC(=O)NCCOCCO[C@H]2[C@H](O)[C@@H](O)[C@@H](O[C@H]3O[C@H](COC(=O)CC(CCCCCCCCC)CCCCCCCCC)[C@@H](O)[C@H](O)[C@H]3O)O[C@@H]2COC(=O)CC(CCCCCCCCC)CCCCCCCCC)C(=O)NCc2cn(CCO[C@H]3O[C@H](CO)[C@H](O)[C@H](O[C@@H]4O[C@H](CO)[C@H](O)[C@H](O)[C@H]4O)[C@H]3NC(C)=O)nn2)[C@H](O)[C@H](O)[C@H]1O)[C@H](O)[C@H](O)CCCCCCCCCCCCCC | Active; Result Reveals That Efficient Conversion Of Igm To Igg Had Occurred And That Long-Term Secondary Immune Responses Had Been Triggered | Active; Result Reveals That The Anti-Serum Induced By Compound Effectively Activated The Complement System | 75% | Active; Compound-Derived Antibodies In Antiserum Exhibited Strongest Binding Activity | Active | Active | Active | Active; Result Reveals That The Anti-Serum Induced By Compound Effectively Activated The Complement System | Active | 43.8 days | Active; Compound Induced Strong Tf-Specific And T-Cell-Dependent Immune Response | Active | Active | 96611 | inactive | inactive | Active; Exhibited Superior Effect | Active; Compound-Derived Antibodies In Antiserum Exhibited Strongest Binding Activity | Active | Time (Mus musculus [20]): 34.5 days; Activity (Mus musculus [21]): Active; Activity (Mus musculus [22]): 263 pg/mL; Survival (Mus musculus [23]): 37.5%
